Experimental data: patent US12343428B2, “Compositions and methods for cancer treatment” (University of Virginia Patent Foundation, priority 2017, dated 2025)

What was measured:
[1] = test system: LNCaP and C4-2 cells; assay: Synergy studies of CNL with abiraterone acetate or enzalutamide (MTS, isobolograms); format: cell-based, human; details: two AR positive cell lines; drug alone
Method: Viability was assayed using MTS assay (Promega […] 96® AQueous Non-Radioactive Cell Proliferation Assay) according to manufacturer instructions. […] Results were normalized to the respective negative controls of each experiment.

[2] = test system: UNC-10 HNSCC cells; assay: MTS cell viability assay, UNC-10 HNSCC cells; format: cell-based, human
Method: (§1) To evaluate cell viability in HNSCC cell lines after drug exposure, 5,000 cells were plated in 96-well plates. After 16-30 hours, cells were exposed to each drug alone or in combination, and viability was measured every 24 hours for a total of 48 hours. Viability was assayed using a […] 96® brand AQueous Non-Radioactive Cell Proliferation MTS Assay (Promega Corporation) according to manufacturer's instructions. A minimum of three biologically independent experiments were performed. Results were normalized to the respective negative controls of each experiment.
(§2) To evaluate cell viability of HNSCC cell lines after exposure to various amounts of Erlotinib, 5,000 UNC-10 or SCC-25 cells were plated in 96-well plates. After 16-30 hours, cells were exposed to each Erlotinib at 0 μM, 0.5 μM, 1 μM, 5 μM, 10 μM, and 25 μM, and viability was measured at 24 and 48 hours. Viability was assayed using MTS assay (Promega […] 96® AQueous Non-Radioactive Cell Proliferation Assay) according to manufacturer instructions. A minimum of three biologically independent experiments were performed. Results were normalized to the respective negative controls of each experiment.
(§3) To evaluate cell viability in HNSCC cell lines after exposure to CNLs, similar experiments were performed with five different concentrations of CNLs alone: 0 μM, 2.5 μM, 5 μM, 10 μM, 25 μM. 5,000 UNC-10 or SCC-25 cells were plated in 96-well plates. After 16-30 hours, cells were exposed to each drug alone or in combination, and viability was measured every 24 hours for a total of 48 hours. Viability was assayed using MTS assay (Promega […] 96® AQueous Non-Radioactive Cell Proliferation Assay) according to manufacturer instructions. A minimum of three biologically independent experiments were performed.
(§4) To evaluate cell viability in HNSCC cell lines after exposure to CNLs plus an EGFR inhibitor, 5,000 cells were plated in 96-well plates. After 16-30 hours, cells were exposed to six different concentrations of Erlotinib (0 μM, 0.5 μM, 1 μM, 5 μM, 10 μM, & 25 μM) combined with five different concentrations of CNLs (0 μM, 2.5 μM, 5 μM, 10 μM, & 25 μM), and viability was measured at 24 hours and 48 hours. Viability was assayed using MTS assay (Promega […] 96® AQueous Non-Radioactive Cell Proliferation Assay) according to manufacturer instructions. A minimum of three biologically independent experiments were performed. Results were normalized to the respective negative controls of each experiment.

[3] = test system: SCC-25 HNSCC cells; assay: MTS cell viability assay, SCC-25 HNSCC cells; format: cell-based, human; details: for viability at 25 µM: Homo sapiens, 48 hours
Method: as §1, §2, §3, §4

[4] = test system: UNC-10 cells; assay: Flow cytometry viability dye assay, UNC-10 cells; format: cell-based; details: Homo sapiens, 48 hours, 25 μM Erlotinib
Method: (§5) To evaluate cell death in HNSCC cell lines exposed to CNL and/or Erlotinib or Gefitinib, a flow cytometry assay was performed. Cells were plated in 24-well plates for 16-30 hours before being pre-treated for one hour with Erlotinib or Gefitinib (0 μM, 10 μM, 25 μM) and then with CNL (0 μM, 2.5 μM, 5 μM). After 24 or 48 hours, cells were stained with a Fixable Viability Dye EFLUOR™ 780 brand a viability dye (ThermoFischer Scientific Inc.)
(§6) according to the manufacturer's recommendations. The use of this dye allowed us to differentiate between two cell populations: dead or live cells. Flow cytometry controls (alive/stained, alive/non-stained, & dead/stained) were used to allow for a more rigorous discrimination between populations. Results were normalized to the respective negative controls of each experiment. Data analysis was performed using FlowJo Software.
(§7) In order to evaluate cell death in HNSCC cell lines exposed to CNL and/or Erlotinib or Gefitinib, flow cytometry assays were also performed. Cells were plated in 24-well plates for 16-30 hours before being pre-treated for one hour with Erlotinib or Gefitinib (0 μM, 10 μM, 25 μM) and then with CNL (0 μM, 2.5 μM, 5 μM). After 24 or 48 hours, cells were stained with a viability dye (Fixable Viability Dye EFLUOR™ 780, ThermoFischer Scientific) according to the manufacturer recommendations. […]

[5] = test system: SCC-25 cells; assay: Flow cytometry viability dye assay, SCC-25 cells; format: cell-based; details: Homo sapiens, 48 hours, 25 μM Erlotinib
Method: as §5, §6, §7

[6] = test system: UNC-7 HNSCC cells; assay: LC-MS/MS sphingolipid profile, UNC-7; format: cell-based, human; details: 25 μM Erlotinib, 0, 3, 6 hours
Method: (§8) To determine Erlotinib's effect on the sphingolipid profile in HNSCC, 500,000 cells of two different cell lines (UNC-7 & UNC-10) were plated and grown in cell culture. When these cells reached about 70% confluence, they were treated with 25 μM Erlotinib. After addition of the Erlotinib, cells were collected immediately, three hours later, or six hours later. Collected cells were lysed using 0.1× PBS and protein quantification was determined using a Pierce BCA Protein Assay (Thermo Fisher Scientific) according to the manufacturer's instructions. Cell lysates containing 250 μg of protein were then used for lipid extractions. […] The sphingolipids were then analyzed using LC-MS/MS.

[7] = test system: UNC-10 HNSCC cells; assay: LC-MS/MS sphingolipid profile, UNC-10; format: cell-based, human; details: 25 μM Erlotinib, 0, 3, 6 hours
Method: as §8

[8] = test system: eight different HNSCC cell lines; assay: MTS cell viability assays in eight HNSCC cell lines; format: cell-based, human; details: any of the cell lines, concentrations and time points
Method: Drugs concentrations. […] For synergistic experiments: abiraterone acetate (Selleckchem, Houston, Texas, United States of America) was used at 0.5 μM, 1 μM, 5 μM, 10 μM, 20 μM; enzalutamide (Selleckchem) at 1 μM, 5 μM, 10 μM, 20 μM, 30 μM; and CNL at 5 μM, 10 μM, 20 μM, and 30 μM. During synergy studies, each concentration of either abiraterone acetate or enzalutamide was combined with either Ghost (negative) control (nanoliposomes without the C6 ceramide—active agent) or each concentration of CNL. Respective negative controls for abiraterone acetate and enzalutamide were also used. Synergy experiments were performed in LNCaP and C4-2 cells. For synergistic studies using the HNSCC cell lines, all eight cell lines were pre-treated for one hour with either Erlotinib (Selleckchem) or Gefitinib (Sigma-Aldrich Corporation, St. Louis, Missouri, United States of America) before adding CNL. Six different concentrations of Erlotinib and Gefitinib (0 μM, 0.5 μM, 1 μM, 5 μM, 10 μM, and 25 μM) were tested against five different CNL concentrations (0 μM, 2.5 μM, 5 μM, 10 μM, and 25 μM). […]
To evaluate cell viability in HNSCC cell lines after drug exposure, 5,000 cells were plated in 96-well plates. After 16-30 hours, cells were exposed to each drug alone or in combination, and viability was measured every 24 hours for a total of 48 hours. […]

[9] = test system: LNCaP cells; assay: LC-MS/MS lipid levels in LNCaP cells; format: cell-based, human; details: 10 μM abiraterone acetate alone
Method: Cells were plated in 6-well plates for 48 hours before being exposed to CNL 10 μM and/or Abiraterone Acetate 10 μM, as well as respective controls (Ghost liposome and Ethanol respectively). Cells were collected after 1 hour, 4 hours, 12 hours, 24 hours, and 48 hours of exposure. Cells were lysed with 0.1× PBS and protein quantification was determined using a DC™ brand Protein Assay (Bio-Rad Laboratories, Inc., Hercules, California, United States of America). The Metabolomics core at University of Virginia performed lipid extraction, LC-MS/MS injections, and data analysis.

How did the “reduction of viability as single treatment” value [1] turn out when `CNC(=O)c1ccc(N2C(=S)N(c3ccc(C#N)c(C(F)(F)F)c3)C(=O)C2(C)C)cc1F` [Enzalutamide] was run?
Its value is “not as effective as a single treatment”.

For `C#Cc1cccc(Nc2ncnc3cc(OCCOC)c(OCCOC)cc23)c1` [Erlotinib], which “effect on cell viability” value ([2]; Erlotinib alone 0.5-25 μM, 24 or 48 hours) is on record?
The value was “little effect”.

And the viability at 25 µM ([2]; Homo sapiens, 48 hours, 25 μM Erlotinib)?
Its viability at 25 µM is 90%.

And the “effect on cell viability” value ([3]; Erlotinib alone, higher concentrations, 24 or 48 hours)?
The value was “not statistically significant”.

What about the viability at 25 µM ([3]; 25 μM Erlotinib) of the same molecule?
The viability at 25 µM was 89%.

And the viability at 25 µM [4]?
Its viability at 25 µM is 91%.

And the viability at 25 µM [5]?
The viability at 25 µM was 89%.

What about the sphingolipid levels [6] of the same molecule?
Its sphingolipid levels is “able to alter sphingolipid levels”.

What about the sphingolipid levels [7] of the same molecule?
The sphingolipid levels was “able to alter sphingolipid levels”.

And the “effect of Erlotinib alone on cell viability” value [8]?
Its value is “failing to produce any meaningful effects”.

Which results are given for `COc1cc2ncnc(Nc3ccc(F)c(Cl)c3)c2cc1OCCCN1CCOCC1` [Gefitinib]?
effect on viability ([2]; Gefitinib at 5 μM or less, 24 hours or 48 hours): little effect; effect on viability ([2]; Gefitinib higher concentrations (10, 25 μM), particularly at 24 hours): reduced viability; viability at 5 µM ([2]; Homo sapiens, 48 hours, 5 μM Gefitinib): 97%; effect on viability compared with UNC-10 ([3]; Gefitinib alone, 24 hours and 48 hours): less striking; viability at 25 µM ([3]; 25 μM Gefitinib): 81%

For `CC(=O)O[C@H]1CC[C@@]2(C)C(=CC[C@@H]3[C@@H]2CC[C@]2(C)C(c4cccnc4)=CC[C@@H]32)C1` [abiraterone acetate], which “reduction of viability as single treatment” value [1] is on record?
The value was “effective in reducing the viabilities of PCa cells”.

What about the C6 ceramide levels [9] of the same molecule?
The C6 ceramide levels was “not changed”.

What about the total ceramide levels [9] of the same molecule?
The total ceramide levels was “not changed”.
